Laboratory results taken from PubChem BioAssay AID651717 (Broad Institute, 2012).

The molecules below were run on mESC Bmi1-luciferase reporter, firefly/renilla ratio, 24 h (assay: compounds raising Bmi1 reporter signal – mouse embryonic stem cells, luciferase, cherry-pick, esBAF inhibitor project, dose response (AID 651717);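 note: luciferase knocked into Bmi1 locus with EF-1a renilla as cell number control; rising ratio signals esBAF inhibition which derepresses Bmi1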).

Compound | AC40 [µM]
CC(=O)n1nc(-c2ccccc2)nc1NCc1ccc(N(C)C)cc1 | 3.41
O=C(Nc1cccnc1Cl)c1cc(-c2ccccc2O)on1 | 1.09
CC(C)(C)Nc1nc(Cl)nc(Nc2ccccc2)n1 | 2.09
CC1(C)C=Cc2cc(-c3coc4cc(O)cc(O)c4c3=O)cc(O)c2O1 | 4.93
Fc1cccc(Cl)c1/C=N/Nc1ccccn1 | 8.55
CCc1sc(C(=O)N2CCN(CC(=O)Nc3cccc(F)c3)CC2)cc1C | 3.04
N#Cc1ccc(-c2cn3c(n2)SCC3)cc1 | 4.82
CC(=O)Nc1ccc(NC(=O)c2cccc(-c3cc4ccccc4oc3=O)c2)cc1 | 9.75
O=c1oc(-c2ccccc2)cc2ccccc12 | 3.89
Cc1nc(-c2ccccc2)nc2[nH]ccc(=O)c12 | 4.23
COc1ccc(CCC(=O)N2CCc3ccccc32)cc1 | 5.22
CC1(C)Cc2c(c(N3CCCC3)nc3sc(C(=O)Nc4ccccc4)c(N)c23)CO1 | 6.24
Cc1cccc(N=[N+]([O-])c2cccc(C)n2)n1 | 6.4
CC(C)CC1C(=O)N(Cc2cn(CCC3OCCCO3)nn2)CCS(=O)(=O)N1Cc1ccc(-c2ccc(Cl)nc2)cc1 (stereo not drawn) | 12.9
Cc1ccc2oc3ccccc3c(=O)c2c1 | 7.05
COc1ccc(CNC(=O)c2ccc(-c3ccccc3)cc2)cc1 | 6.89
COc1cc(OC)c2c(-c3cccc(/C=C/c4ccc(F)cc4)c3)cc(=O)oc2c1 | 3.49
COC(=O)CN(C)C(=O)c1ccc2nc(Cc3cccc(Cl)c3)oc2c1 | 2.4
C=CCNc1nc(NCc2cccc(OC)c2)c2sc(-c3ccccc3)cc2n1 | 1.86
Nc1ccc(C(=O)OCc2nc3ccccc3[nH]2)cc1 | 19.1
O=C(c1ccc(Cl)cc1)c1cnc(Nc2ccccc2)s1 | 1.46
CCCC(=O)Nc1sc2c(c1C#N)CCCC2 | 19
COc1ccc(Cc2nnc(NC(=O)c3ccc(OC)cc3OC)s2)cc1 | 12.5
Cc1csc(NC(=O)Cc2c[nH]c3ccccc23)n1 | 10.2
Clc1ccc(-c2nc3ccc(Cl)cn3c2Cc2ccsc2)cc1 | 9.87

Compound | AC40 [µM]
C/C(=N\OC(=O)NC(C)C)c1sc(-c2ccccc2)nc1C | 7.63
O=C(N/N=C/c1ccccc1)c1ccc(NC(=O)c2ccc(F)cc2)cc1 | 1.46
O=C1/C(=C/c2cccc3ccccc23)CCCc2ccccc21 | 5.34
CO[C@@H]1CN(C)C(=O)c2cc(NC(=O)Nc3ccc4c(c3)OCO4)ccc2OC[C@@H](C)NC[C@@H]1C | 3.02
CSc1ccc(/C=N/NC(=O)c2ccccc2Cl)cc1 | 6.47
FC(F)Oc1ccccc1/C=N/Nc1nc2ccccc2o1 | 3.81
N#Cc1c(/N=C/c2cccs2)sc2c1CCC2 | 0.897
CCn1c(COc2ccccc2)nc2ccccc21 | 22
O=C(Nc1ccc(F)cc1)NC1CCCCCCC1 | 12
Cc1ccc(-c2noc(-c3ccccc3C(=O)N3CCN(C)CC3)n2)cc1 | 11.5
COc1ccc(/C=N/OCc2ccccc2C#N)c(OC)c1 | 6.27
CC(=O)N(/N=C1\Sc2ccccc2C1=O)c1ccccc1 | < 0.26
O=C(Nc1ccccn1)c1ccc(Cl)c(S(=O)(=O)N2CCCCCC2)c1 | 10.4
CCCc1cc(C(=O)Nc2cc(Br)ccc2O)no1 | 8.53
O=C(NC1CCCC1)c1cc(-c2ccc(Cl)c(Cl)c2)on1 | 2.8
Clc1ccc(-c2nc(Cc3ccccc3)no2)cc1 | 1.85
COc1cc2c(cc1NC(=O)C(C)OC(=O)/C=C/c1ccc(OC(F)F)cc1)oc1ccccc12 (stereo not drawn) | 3.91
COc1cc(/C=C/c2ccc(O)cc2)cc(OC)c1 | 2.31
Cc1cc(C)c2nc(-c3ccccc3)ccc2c1 | 1.5
Cc1cc(F)ccc1-c1cc(C(=O)NC2CCCCC2)[nH]n1 | 9.06
O=C(NCCCc1ccccc1)c1ccccc1O | 10.7
CCN(C(=O)c1cccs1)c1nnc(-c2ccncc2)s1 | 1.05
O=C(COC(=O)c1cc2ccccc2oc1=O)Nc1cccc(S(=O)(=O)N2CCCCCC2)c1 | 12.7
O=C(Cc1ccccc1)Nc1nc(-c2cccs2)cs1 | 8.2
Cc1ccc(NC(=O)c2ccc3c(c2)CCN3S(C)(=O)=O)cc1 | 10.5

Compound | AC40 [µM]
c1ccc2cc(C3CCCCC3)ncc2c1 | 4.49
Cc1cc(C)c2nc(N3CCCC(C(=O)NC4CCCC4)C3)sc2c1 (stereo not drawn) | 9.66
NC(=O)c1sc2nc(-c3cccs3)ccc2c1N | 2.75
CN(C)c1ccccc1-c1csc(N2CCC(C(N)=O)CC2)n1 | < 0.26
CCCS(=O)(=O)N1CCC(C(=O)NC2CCC(C)CC2)CC1 (stereo not drawn) | 3.19
Clc1ccc(-n2nnc(-c3ncc[nH]3)n2)cc1Cl | 11.6
Cc1ccc2c3c([nH]c2c1C)-c1nonc1CC3 | 4.53
CSc1ccccc1NC(=O)c1cc(C(C)C)on1 | 3.11
CCc1c(C)sc(NC(=O)c2cccs2)c1C(N)=O | 2.66
CCc1ccccc1NC(=O)c1cc(-c2cccc(O)c2)on1 | 5.03
COc1ccc(C2=Nc3ccccc3NC(=O)C2N(C(=O)c2cc3ccccc3[nH]2)c2ccccc2)cc1 (stereo not drawn) | 1.44
COc1ccc(C(=O)CCc2ccccc2O)c(OC)c1 | 3.58
CCN(CC)C(=O)c1nc(-c2cccc3ccccc23)no1 | 13.1
c1ccc(-c2noc(CC3CCCCC3)n2)cc1 | 4.12
Cc1cc(Cl)c(O)c(-n2nc3ccccc3n2)c1 | 5.74
C(=NOCc1ccccc1)c1cccnc1 | 4.28
CC(C)c1ccc(-c2nn(-c3ccccc3)cc2C2C(C#N)=C(N)OC3=C2C(=O)CC(C)(C)C3)cc1 (stereo not drawn) | 29.1
O=C(Nc1ccc(-c2cnco2)cc1)c1ccc(F)cc1F | 4.28
Cc1ccc(-c2ccc(CCC(=O)O)n2-c2cccc(O)c2)cc1 | 10.1
Cc1ccc(NCSc2ccc(Cl)cc2)cc1 | 1.66
Cc1ccnc(NC(=O)c2ccc(Cl)c(S(=O)(=O)N3CCCCC3)c2)c1 | 11.7
Cc1ccc(C(=O)CC(=O)c2ccccc2C)c(O)c1 | 9.56
CO[C@H]1CN(C)C(=O)c2ccc(NC(=O)Nc3ccc4c(c3)OCO4)cc2OC[C@@H](C)NC[C@H]1C | 3.55
O=C(NCCc1ccccc1)c1nccc2ccccc12 | 6.84
Cc1ccc(OCc2cc(C(=O)NC(C)Cc3cccnc3)no2)cc1C (stereo not drawn) | 1.8

Compound | AC40 [µM]
Cc1ccc2[nH]c(C(=O)N3CCCCC3)cc2c1 | 6.79
COc1ccccc1CNC(=O)C[C@H]1CC[C@@H]2[C@H](COC[C@H](O)CN2C(=O)Nc2ccc(Cl)cc2)O1 | 14.1
O=C(CC(=O)c1ccccc1)c1ccccc1 | 2.47
Cn1c(COc2ccccc2)nc2ccccc21 | 2.59
Cc1ccc(Nc2nc(-c3cccnc3)cs2)cc1Cl | 0.961
Cc1nc(C)c(-c2csc(Nc3ccc(Cl)cn3)n2)s1 | 8.77
Cn1cccc1C(=O)NC1CCCCCC1 | 3.74
CN(c1nc(-c2ccccc2)cs1)C1CCS(=O)(=O)C1 (stereo not drawn) | 20.3
Cc1ccc(OCc2cc(C(=O)N(C)CCc3ccccn3)no2)cc1C | 2.28
COc1ccc(Nc2ccc3ccccc3c2)cc1 | 1.13
COc1ccc(-n2nc(C(=O)NCC(=O)N3CCCC3)c3ccccc3c2=O)cc1Cl | 20.9
COc1ccc(-c2ccc3n2Cc2cnnn2-c2ccccc2-3)cc1 | 4.57
Cc1ccc2nc(-c3cccc(S(=O)(=O)N4CCCC4)c3)cn2c1 | 23.2
N#Cc1nc(COc2ccccc2)oc1N1CCCCC1 | 15.6
COc1ccc(CNC(=O)Nc2ccc(C)cc2)cc1 | 8.63
COc1ccc(C(=O)NCc2ccc(-c3nc4ccccc4s3)cc2)cc1 | 6.13
CN(C)c1ccc(-c2csc(C(O)c3ccccc3)n2)cc1 (stereo not drawn) | 0.311
Oc1ccc(Cl)cc1C=NN1CCCCCC1 | 1.37
S=C1NC(c2ccccc2)=NCN1c1ccccc1 | 17.5
O=C(CNC(=O)c1ccccc1F)Nc1ccc2c(c1)OCO2 | 3.55
Cc1cc2oc(=O)cc(CN(C)Cc3ccccc3F)c2cc1Cl | 4.33
CC(C)c1ccc(NC(=O)c2ccc3snnc3c2)cc1 | 3.23
C/C(=N\OCc1ccc(C#N)cc1)c1ccc(S(=O)(=O)N(C)C)cc1 | 7.91
COC(=O)/C(=C1\Oc2ccc(C(C)(C)C)cc2S1)C(F)(F)F | 1.45
COc1cc(/C=N/NC(=O)c2nnn(-c3nonc3N)c2C)ccc1OCc1ccc(Cl)cc1 | 19.7

Compound | AC40 [µM]
Fc1ccccc1NC(=S)N1CCC(c2ccccc2)C1 (stereo not drawn) | 0.517
O=C(c1noc2c1CCCC2)N1CCc2ccccc2C1 | 2.99
Cc1ccc(N(Cc2ccccc2)C(=O)c2cccc(S(=O)(=O)N3CC(C)OC(C)C3)c2)cc1 (stereo not drawn) | 29.6
c1ccc(C2Oc3ccccc3C3CC(c4cccs4)=NN32)cc1 (stereo not drawn) | 8.04
Cn1c2ccccc2c(=O)c2cc(C#Cc3ccsc3)ccc21 | 1.08
COc1cccc(NC(=O)C(=O)NCCC2CCCCN2S(=O)(=O)c2cccs2)c1 (stereo not drawn) | 3.86
COc1ccc(Cl)c(-c2cc(C(=O)Nc3ccccc3)[nH]n2)c1 | 0.423
CC(=O)c1ccc(NC(=O)C2CC(=O)N(Cc3ccccc3)C2)cc1 (stereo not drawn) | 3.25
Cc1ccc2c(CN(C)Cc3cccc(F)c3)cc(=O)oc2c1 | 2.23
COc1ccc(CN(C(=O)CSc2nnc(-c3c[nH]c4ccccc34)o2)c2ccc(F)cc2)cc1OC | 7.04
O=C(c1cc(COc2cccc(C(F)(F)F)c2)on1)N1CCCC1 | 17.5
COc1ccc(Cl)cc1C(=O)Nc1ccc(Br)c(C)n1 | 6.83
Cc1cc(C(=O)Nc2sc(C)c(-c3ccc(F)cc3)c2C(N)=O)no1 | 0.612
Cc1ccc(S(=O)(=O)N(C)CC(=O)Nc2cc(C)ccn2)cc1 | 9.84
O=C(CCNC(=O)c1ccccc1)Nc1nc2ccccc2s1 | 3.91
COc1ccc(-c2cc(C(=O)Nc3cccnc3)no2)cc1OC | 4.87
CO[C@H]1CN(C)C(=O)c2cc(NC(=O)NC(C)C)ccc2OC[C@@H](C)N(Cc2ccc(-c3ccccn3)cc2)C[C@@H]1C | 22.6
Clc1ccc(/C=N/Nc2nc(Cl)nc3ccccc23)cc1 | 1.35
CC(=O)N1CC2(CC(c3ccccc3F)=NO2)CN1c1ccc(Cl)cc1 (stereo not drawn) | 19.9
O=C(c1cc2c(s1)-c1ccccc1OC2)N1CCCC1 | 1.71
COc1ccc(/C=C/C(=O)Oc2cccc(/C=N/NC(=O)Cc3ccc(Br)cc3)c2)cc1 | 4.57
O=C(NCCc1ccccc1)c1ccc(Cl)c(S(=O)(=O)N2CCCC2)c1 | 8.04
O=C(Nc1cccc(O)c1)c1ccc(Br)c(S(=O)(=O)N2CCCCC2)c1 | 17.6
